Measurements as given in PMC8022201, “Non‐canonical metabolic pathways in the malaria parasite detected by isotope‐tracing metabolomics” (Molecular Systems Biology, 2021).

Biological target: T1, HAD4 (PfHAD4) (Plasmodium falciparum, UniProt Q8III4)
T1 construct: gene PF3D7_1118400
Assay: biochemical

T1 sequence (Q8III4 1-306): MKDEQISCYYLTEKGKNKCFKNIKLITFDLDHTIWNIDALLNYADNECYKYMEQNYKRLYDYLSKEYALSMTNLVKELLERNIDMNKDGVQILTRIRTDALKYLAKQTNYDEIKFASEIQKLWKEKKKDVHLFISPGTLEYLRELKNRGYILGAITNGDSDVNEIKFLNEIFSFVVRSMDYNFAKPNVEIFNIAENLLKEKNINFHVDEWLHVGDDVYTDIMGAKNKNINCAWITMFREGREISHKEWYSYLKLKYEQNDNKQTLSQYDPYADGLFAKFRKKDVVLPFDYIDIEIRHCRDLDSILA

Structure (SMILES): O=P(O)(O)O [inorganic phosphate]
- IC50: 2100 ± 210 µM
